“Also recorded” adds a separate entry of the source. Counter-ions that a name gives are not always drawn.
System: mouse myopia model
Assay: Mouse myopia model (−30D lens on right eye, 0D on left), eye drops for three weeks; change in refractive index and axial length measured
Type: in vivo, mice (C57BL6/J)
Settings: for myopia suppressing effect (overall conclusion): mouse myopia model, eye drops for three weeks; for change in refractive index / change in axial length: −30D lens eyes vs OD lens eyes after three weeks of eye drops, bunazosin two drops once or twice per day, unoprostone two drops once per day; for change in refractive index: infrared photorefractor; for change in axial length: spectral domain OCT
Protocol: The present inventors, with a focus on the fact that certain glaucoma ophthalmic preparations are effective in suppressing myopia progression, attempted to find myopia progression suppressing effects from existing glaucoma ophthalmic preparations. In the present application, glaucoma ophthalmic preparations were administered to a mouse myopia model, and an axial length and a refractive index were measured to evaluate whether the eye drops were effective in suppressing the progression of axial myopia.
Eye drops were continuously administered for three weeks, with phosphate buffered saline (PBS) eye drops as the control group and bunazosin eye drops as the test group. Bunazosin is the main ingredient of a Detantol ophthalmic solution, and bunazosin eye drops were administered using Detantol 0.01% ophthalmic solution (manufactured by Santen Pharmaceutical Co. Ltd., 1 mL contains 0.1 mg of bunazosin hydrochloride). The number of eye drops was two drops once per day and twice a day (two drops each in the morning and evening). The refractive index and the axial length of the mouse eyeball after three weeks were measured and the amounts of change were calculated.
The refractive values were measured by using an infrared photorefractor for mice (manufactured by Prof. Schaeffel, University of Tubingen). The axial lengths were measured by using spectral domain optical coherence tomography (Envisu R4310, manufactured by Leica).
Mice similar to those in Experiment 1 were used to induce myopia. Eye drops were continually administered for three weeks, with PBS eye drops as the control group and unoprostone eye drops as the test group. Unoprostone is the main ingredient of a Rescula ophthalmic solution, and unoprostone eye drops were administered (two drops once per day, per eye) with Rescula ophthalmic solution 0.12% (Nitto Medic Co., Ltd., 1 mL contains 1.2 mg of isopropyl unoprostone). The refractive index and the axial length of the mouse eyeball after three weeks were measured and the amounts of change were calculated. The refractive index measurement and the axial length measurement were the same as in Experiment 1.

[1] = two drops once per day vs twice a day, three weeks

Row | SMILES | myopia suppressing effect (overall conclusion) | change in refractive index | change in axial length | myopia suppressing effect (overall conclusion) (hydrochloride) | comparison of dosing frequency (once vs twice per day), axial length [1] | comparison of dosing frequency (once vs twice per day), refractive index [1]
1 | CCCCCCCC(=O)CC[C@@H]1[C@@H](C/C=C\CCCC(=O)OC(C)C)[C@@H](O)C[C@H]1O [unoprostone, isopropyl unoprostone] | did not exhibit a myopia suppressing effect; also recorded: does not exhibit a myopia suppressing effect | both eyes became myopic and no myopia suppressing effect of the eye drops was confirmed | no significant difference in the axial lengths of the two eyes was confirmed |  |  | 
2 | CCCC(=O)N1CCCN(c2nc(N)c3cc(OC)c(OC)cc3n2)CC1 [bunazosin, bunazosin hydrochloride] |  | no significant difference between the eyes with the −30D lenses and the eyes with OD lenses | substantially no difference in the axial lengths between the two eyes | exhibited a myopia-suppressing effect; also recorded: exhibits a myopia suppressing effect | no difference between one eye drop and two eye drops | one eye drop has a greater myopia suppressing effect than two eye drops
